Reference: patent US20150105252A1, “SUBSTITUTED PYRAZOLES AS HERBICIDES” (E I DU PONT DE NEMOURS AND COMPANY, priority 2013, published 2015)

Tests used:
[1] = system: waterhemp_RES1 (ALS & Triazine resistant common waterhemp); assay: Test F postemergence; assay type: in vivo, Amaranthus rudis; settings: scale 0 to 100
Description: (§1) Seeds of plant species selected from corn (Zea mays), soybean (Glycine max), velvetleaf (Abutilon theophrasti), lambsquarters (Chenopodium album), wild poinsettia (Euphorbia heterophylla), pigweed, palmer (palmer pigweed, Amaranthus palmeri), common waterhemp (Amaranthus rudis), surinam grass (Brachiaria decumbens), large crabgrass (Digitaria sanguinalis), crabgrass, Brazil (Brazilian crabgrass, Digitaria horizontalis), fall panicum (Panicum dichotomiflorum), giant foxtail (Setaria faberii), green foxtail (Setaria viridis), goosegrass (Eleusine indica), johnsongrass (Sorghum halepense), common ragweed (Ambrosia elation), barnyardgrass (Echinochloa crus-galli), southern sandbur (Cenchrus echinatus), arrowleaf sida (Sida rhombifolia), Italian ryegrass (Lolium multiflorum), dayflower, VA (Virginia (VA) dayflower, Commelina virginica), field bindweed (Convolvulus arvensis), cocklebur (common cocklebur, Xanthium strumarium), morningglory (Ipomoea coccinea), nightshade (eastern black nightshade, Solanum ptycanthum), kochia (Kochia scoparia), yellow nutsedge (Cyperus esculentus), and hairy beggarticks (Bidens pilosa), were planted into a silt loam soil and treated preemergence with test chemicals formulated in a non-phytotoxic solvent mixture which included a surfactant.
At the same time, plants from these crop and weed species and also horseweed (Canada horseweed, Conyza canadensis), smartweed (ladysthumb smartweed, Polygonum persicaria), waterhemp_RES1, (ALS & Triazine resistant common waterhemp, Amaranthus rudis), and waterhemp_RES2, (ALS & HPPD resistant common waterhemp, Amaranthus rudis) were treated with postemergence applications of test chemicals formulated in the same manner. Plants ranged in height from 2 to 18 cm for postemergence treatments (1- to 4-leaf stage). Treated plants and controls were maintained in a greenhouse for 14 to 21 days, after which time all species were compared to controls and visually evaluated. Plant response ratings, summarized in Table F, are based on a scale of 0 to 100 where 0 is no effect and 100 is complete control. A dash (-) response means no test result.

[2] = system: cocklebur; assay: Test F preemergence; assay type: in vivo, Xanthium strumarium; settings: scale 0 to 100
Description: as §1, with “surfactant. […]” for “surfactant.”

SMILES	Plant response rating, Waterhemp_RES1 ([1]; Postemergence, 16 g ai/ha)	Plant response rating, Waterhemp_RES1 ([1]; Postemergence, 31 g ai/ha)	Plant response rating, Waterhemp_RES1 ([1]; Postemergence, 125 g ai/ha)	Plant response rating, Waterhemp_RES1 ([1]; postemergence, 62 g ai/ha)	Plant response rating, Waterhemp_RES1 ([1]; postemergence, 8 g ai/ha)	Plant response rating, Cocklebur ([2]; 62 g ai/ha)	Plant response rating, Cocklebur ([2]; 125 g ai/ha)
CCc1cc(-c2ccc(C(F)(F)F)cc2)nn1Cc1ccnc(C(F)(F)F)c1 [Compound 110]	90	98	100	90	85		
CCc1cc(C(=O)NCC(F)(F)F)nn1Cc1ccnc(Br)c1 [Compound 224]						0	0
